Experimental data taken from PubChem BioAssay (NCI).
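Cells were grown in 96-well plates and exposed to each compound for 48 hours at five concentrations; endpoints were interpolated linearly between bracketing concentrations, or set to the highest concentration if not reached. GI50 marks 50% less growth. TGI: total growth inhibition.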

Columns and labels:
Assay in all cases: growth of human tumour cells (NCI), 48 h
[1] = test system: OVCAR-4 ovarian
[2] = test system: MDA-MB-231 breast
[3] = test system: PC-3 prostate
[4] = test system: HT29 colon
[5] = test system: SR leukemia
[6] = test system: UACC-62 melanoma
[7] = test system: HOP-92 NSCLC
[8] = test system: NCI-H522 lung
[9] = test system: SF-295 CNS
[10] = test system: NCI-H226 lung

Compound	TGI [1] [µM]	TGI [2] [µM]	TGI [3] [µM]	TGI [4] [µM]	TGI [5] [µM]	TGI [6] [µM]	TGI [7] [µM]	TGI [8] [µM]	TGI [9] [µM]	TGI [10] [µM]	GI50 [1] [µM]	GI50 [2] [nM]	GI50 [3] [µM]	GI50 [4] [µM]	GI50 [5] [nM]	GI50 [6] [nM]	GI50 [7] [µM]	GI50 [8] [µM]	GI50 [9] [µM]	GI50 [10] [µM]
O=c1oc2ccccc2cc1-c1ccc([N+](=O)[O-])cc1	> 100	> 100	> 100	> 100	> 100	> 100	> 100	> 100	> 100	> 100	–	–	–	–	–	–	–	–	–	–
O=C(O)C(Cc1ccccc1-c1ccccc1)C(=O)O	> 100	> 100	> 100	> 100	> 100	> 100	> 100	> 100	> 100	> 100	–	–	–	–	–	–	–	–	–	–
COC(=O)c1ccc(-c2nc3cc(F)c(F)cc3nc2C#N)cc1	32.3	6.87	26.6	35.6	2.77	5.83	21.1	35.4	15.5	21.4	4.71	1570	11.7	11.1	1250	2660	9.8	6.36	7.26	9.39
